The values that follow come from ChEMBL document CHEMBL6121006, “Marine natural product-inspired discovery of novel BRD4 inhibitors with anti-inflammatory activity” (Eur J Med Chem, 2025).

Active and inactive are the calls of the source. No cut-off for these calls is given here.

Data set [1] has as its target Bromodomain-containing protein 3 (Homo sapiens) (UniProt Q15059). Put plainly: Inhibition of BRD3 BD2 (unknown origin) at 1 uM incubated for 2 hrs by TR-FRET assay relative to control. On the technique in general: In TR-FRET formats the signal depends on donor and acceptor labels being close together.
Data set [2] deals with Mus musculus. Put plainly: Antiinflammatory activity against LPS-induced C57BL/6 mouse acute inflammation model assessed as decrease in infiltration of renal interstitial inflammatory cells at 100 mg/kg, po pre-administered for 2 hrs followed by LPS stimulation for 6 hrs. Format: functional, organism-based. As to conditions: time 8.0 hrs.
Data set [3] can be described thus: Toxicity in C57BL/6 mouse effect on spleen at 100 mg/kg, po measured after 24 hrs. It is filed as organism-based. As to conditions: in vivo.
Data set [4] deals with RAW264.7. Put plainly: Anti-inflammatory activity in mouse RAW264.7 cells assessed as inhibition of LPS-induced IL-6 expression preincubated with compound for 2 hrs followed by LPS stimulation and measured after 6 hrs by RT-qPCR analysis. Format: functional, cell-based. The conditions noted are these: dose 2.5-20 µM, time 8.0 hrs. For orientation: Real-time PCR tracks product formation cycle by cycle.

Data set [5] can be described thus: Toxicity in C57BL/6 mouse effect on kidney at 100 mg/kg, po measured after 24 hrs. It is filed as organism-based. As to conditions: in vivo.
The subject of data set [6] is RAW264.7. Put plainly: Anti-inflammatory activity in mouse RAW264.7 cells assessed as inhibition of LPS-induced NO production preincubated with compound for 24 hrs followed by LPS stimulation by Griess reagent based analysis. It is filed as functional, cell-based. (In general: The Griess reaction detects nitrite, a stable product of nitric oxide.)
Data set [7] relates to RAW264.7. Put plainly: Anti-inflammatory activity in mouse RAW264.7 cells assessed as inhibition of LPS-induced TNF-alpha expression preincubated with compound for 2 hrs followed by LPS stimulation and measured after 6 hrs by RT-qPCR analysis. As to conditions: dose 2.5-20 µM, time 8.0 hrs. It is filed as functional, cell-based.
A short description of data set [8]: Toxicity in C57BL/6 mouse effect on lung at 100 mg/kg, po measured after 24 hrs. It is filed as organism-based. As to conditions: in vivo.
The subject of data set [9] is THP-1. Put plainly: Anti-inflammatory activity in human THP-1 cells assessed as inhibition of LPS-induced TNF-alpha level preincubated with compound for 2 hrs followed by LPS stimulation and measured after 22 hrs by ELISA method. Format: functional, cell-based. The conditions noted are these: dose 2.5-20 µM, time 24.0 hrs.
Data set [10] has as its target T1, Bromodomain-containing protein 4 (Homo sapiens, UniProt O60885). The data set is described as follows: Inhibition of human recombinant BRD4 BD1 (42 to 167 residues) extracted from Escherichia coli BL21 (DE3) incubated for 2 hrs by TR-FRET assay.
Data set [11] relates to Mus musculus. Put plainly: Antiinflammatory activity against LPS-induced C57BL/6 mouse acute inflammation model assessed as improvement of excessive inflammatory cell infiltration in liver at 50 to 100 mg/kg, po pre-administered for 2 hrs followed by LPS stimulation for 6 hrs. The conditions noted are these: dose 50-100 mg/kg, time 8.0 hrs. Format: functional, organism-based.

The test system of data set [12] is THP-1. Put plainly: Anti-inflammatory activity in human THP-1 cells assessed as inhibition of LPS-induced IL-6 expression preincubated with compound for 2 hrs followed by LPS stimulation and measured after 6 hrs by RT-qPCR analysis. Format: functional, cell-based. The conditions noted are these: dose 2.5-20 µM, time 8.0 hrs.
The target in data set [13] is Bromodomain-containing protein 2 (Homo sapiens) (UniProt P25440). Put plainly: Inhibition of BRD2 BD2 (unknown origin) at 1 uM incubated for 2 hrs by TR-FRET assay relative to control.
Sequence of Bromodomain-containing protein 2 (Homo sapiens) (P25440 whole entry, looked up): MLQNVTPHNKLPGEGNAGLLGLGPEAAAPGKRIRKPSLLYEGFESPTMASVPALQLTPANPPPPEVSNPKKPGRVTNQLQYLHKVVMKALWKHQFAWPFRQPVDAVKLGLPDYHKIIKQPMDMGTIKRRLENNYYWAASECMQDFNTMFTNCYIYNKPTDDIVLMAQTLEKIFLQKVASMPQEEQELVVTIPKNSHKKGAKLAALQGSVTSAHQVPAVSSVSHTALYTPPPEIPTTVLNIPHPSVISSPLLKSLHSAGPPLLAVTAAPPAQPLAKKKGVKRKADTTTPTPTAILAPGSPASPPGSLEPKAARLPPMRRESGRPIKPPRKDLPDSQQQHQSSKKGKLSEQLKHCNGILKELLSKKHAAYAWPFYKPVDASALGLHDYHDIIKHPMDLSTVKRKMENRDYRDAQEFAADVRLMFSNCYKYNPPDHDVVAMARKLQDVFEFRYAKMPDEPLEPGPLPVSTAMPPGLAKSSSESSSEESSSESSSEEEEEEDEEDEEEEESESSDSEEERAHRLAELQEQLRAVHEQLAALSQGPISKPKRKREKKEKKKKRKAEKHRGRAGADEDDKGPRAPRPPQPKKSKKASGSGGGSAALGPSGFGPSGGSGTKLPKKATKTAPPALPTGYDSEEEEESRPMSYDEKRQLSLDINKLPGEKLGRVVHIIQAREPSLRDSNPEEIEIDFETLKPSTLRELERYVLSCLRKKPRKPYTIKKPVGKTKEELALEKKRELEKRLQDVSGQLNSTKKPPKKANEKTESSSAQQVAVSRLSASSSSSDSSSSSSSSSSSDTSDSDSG
For data set [14], the system named is Mus musculus. The data set is described as follows: Antiinflammatory activity against C57BL/6 mouse acute inflammation model assessed as reduction in LPS induced lung pulmonary hemorrhage at 50 to 100 mg/kg, po pre-administered for 2 hrs followed by LPS stimulation for 6 hrs. Format: functional, organism-based. The conditions noted are these: dose 50-100 mg/kg, time 8.0 hrs.

For data set [15], the system named is RAW264.7. The data set is described as follows: Anti-inflammatory activity in mouse RAW264.7 cells assessed as inhibition of LPS-induced IL-6 level preincubated with compound for 2 hrs followed by LPS stimulation and measured after 22 hrs by ELISA method. Format: functional, cell-based. As to conditions: dose 2.5-20 µM, time 24.0 hrs.
Data set [16] relates to Mus musculus. The data set is described as follows: Antiinflammatory activity against LPS-induced C57BL/6 mouse acute inflammation model assessed as reduction of renal injury at 100 mg/kg, po pre-administered for 2 hrs followed by LPS stimulation for 6 hrs. Format: functional, organism-based. As to conditions: time 8.0 hrs.
The target of data set [17] is T2, ATPase family AAA domain-containing protein 2 (Homo sapiens) (UniProt Q6PL18).
T2 sequence (whole entry): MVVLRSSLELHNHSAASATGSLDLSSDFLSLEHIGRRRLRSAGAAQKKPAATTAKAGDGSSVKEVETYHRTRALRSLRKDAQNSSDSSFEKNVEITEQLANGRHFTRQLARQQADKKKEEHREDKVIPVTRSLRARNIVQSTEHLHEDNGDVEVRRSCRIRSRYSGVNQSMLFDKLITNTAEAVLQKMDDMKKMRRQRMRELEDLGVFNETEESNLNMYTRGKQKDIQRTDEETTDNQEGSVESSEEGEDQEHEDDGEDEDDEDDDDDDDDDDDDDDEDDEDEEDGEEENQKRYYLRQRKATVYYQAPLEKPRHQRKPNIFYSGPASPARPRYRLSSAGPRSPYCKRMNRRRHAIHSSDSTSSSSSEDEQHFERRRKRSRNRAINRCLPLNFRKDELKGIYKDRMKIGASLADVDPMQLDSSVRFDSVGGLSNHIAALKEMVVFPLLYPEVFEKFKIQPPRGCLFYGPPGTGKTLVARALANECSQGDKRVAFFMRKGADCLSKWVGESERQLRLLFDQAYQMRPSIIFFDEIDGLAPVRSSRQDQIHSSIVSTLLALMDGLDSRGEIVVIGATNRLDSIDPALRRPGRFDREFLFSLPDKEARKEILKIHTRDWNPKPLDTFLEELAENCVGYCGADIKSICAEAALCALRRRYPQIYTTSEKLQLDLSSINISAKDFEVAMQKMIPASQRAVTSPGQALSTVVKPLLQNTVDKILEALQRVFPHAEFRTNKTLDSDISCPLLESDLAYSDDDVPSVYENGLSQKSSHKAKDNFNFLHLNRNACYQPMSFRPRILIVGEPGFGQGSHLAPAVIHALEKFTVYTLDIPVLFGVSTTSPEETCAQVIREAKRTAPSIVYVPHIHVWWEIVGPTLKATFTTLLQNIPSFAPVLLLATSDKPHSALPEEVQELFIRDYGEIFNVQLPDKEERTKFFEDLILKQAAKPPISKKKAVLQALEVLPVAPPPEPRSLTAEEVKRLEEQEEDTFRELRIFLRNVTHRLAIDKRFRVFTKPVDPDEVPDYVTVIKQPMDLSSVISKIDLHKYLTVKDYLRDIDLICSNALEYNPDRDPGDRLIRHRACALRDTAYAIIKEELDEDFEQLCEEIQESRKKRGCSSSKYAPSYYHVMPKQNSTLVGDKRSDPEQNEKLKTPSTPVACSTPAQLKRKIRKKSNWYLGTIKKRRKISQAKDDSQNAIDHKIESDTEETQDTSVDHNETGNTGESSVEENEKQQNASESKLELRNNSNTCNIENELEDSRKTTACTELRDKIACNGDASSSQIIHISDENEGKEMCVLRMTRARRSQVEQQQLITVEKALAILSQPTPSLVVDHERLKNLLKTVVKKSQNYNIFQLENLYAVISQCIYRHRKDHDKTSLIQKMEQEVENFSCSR
The data set is described as follows: Inhibition of ATAD2A (unknown origin) at 1 uM incubated for 2 hrs by TR-FRET assay relative to control.

For data set [18], the system named is THP-1. Put plainly: Cytotoxicity against human THP-1 cells at 20 uM measured after 24 hrs by CCK8 method. It is filed as functional, cell-based.
Data set [19] has as its target T1, Bromodomain-containing protein 4. Put plainly: Inhibition of human recombinant BRD4 BD2 (349 to 460 residues) extracted from Escherichia coli BL21 (DE3) at 10 uM incubated for 2 hrs by TR-FRET assay relative to control.

As a reminder, the inhibition is the change of the read-out against control, counted positive when it falls. As usually defined, the IC50 is the concentration at which inhibition is half-maximal.

Sequence of Bromodomain-containing protein 3 (Homo sapiens) (Q15059 2-726 limits assumed): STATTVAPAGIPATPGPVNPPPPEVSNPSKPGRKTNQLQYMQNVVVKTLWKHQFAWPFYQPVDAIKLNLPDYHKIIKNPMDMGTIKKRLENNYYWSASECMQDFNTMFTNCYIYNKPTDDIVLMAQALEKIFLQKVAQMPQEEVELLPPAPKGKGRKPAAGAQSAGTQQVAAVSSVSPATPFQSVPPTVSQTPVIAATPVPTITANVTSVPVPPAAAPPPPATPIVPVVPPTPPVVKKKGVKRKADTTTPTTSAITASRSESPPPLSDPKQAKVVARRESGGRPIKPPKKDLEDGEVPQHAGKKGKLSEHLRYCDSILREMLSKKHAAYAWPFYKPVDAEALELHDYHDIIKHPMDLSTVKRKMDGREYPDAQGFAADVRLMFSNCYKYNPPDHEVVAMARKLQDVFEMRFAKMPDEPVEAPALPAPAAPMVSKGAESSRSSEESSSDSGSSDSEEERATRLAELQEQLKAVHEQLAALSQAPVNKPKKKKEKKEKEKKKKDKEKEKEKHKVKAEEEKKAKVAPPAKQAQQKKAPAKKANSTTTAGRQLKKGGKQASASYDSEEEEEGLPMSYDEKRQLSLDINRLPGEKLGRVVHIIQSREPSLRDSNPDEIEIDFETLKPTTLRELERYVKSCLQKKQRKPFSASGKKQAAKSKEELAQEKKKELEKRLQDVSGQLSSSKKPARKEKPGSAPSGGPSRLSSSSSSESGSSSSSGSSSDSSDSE

For the compound `COc1ccc(/C=C/c2nc3cc(OC)cc(OC)c3c(=O)[nH]2)cc1`, the inhibition turned out to be 44% in data set [1], 30% in data set [13], 5% in data set [17] and 89% in data set [19]. The outcome with Mus musculus [2], in the data set on Mus musculus [11], with Mus musculus [14] and in the data set with Mus musculus [16] was Active. Moreover, the Activity entry in data set [3] was “Non-toxic”; with RAW264.7 [4], “Dose-dependent-effect”; in data set [5], “Non-toxic”; with RAW264.7 [7] it was “Dose-dependent-effect”; in data set [8], “Non-toxic”; in the data set on THP-1 [9], “Dose-dependent-effect”. The Activity result with THP-1 [12] and in the data set on RAW264.7 [15] was “Dose-dependent-effect” throughout. The IC50 was 1.98 µM in the data set with RAW264.7 [6] and 3.81 µM in data set [10]. In addition, the result with THP-1 [18] was inactive.
